Experimental data from ChEMBL document CHEMBL3608255 (ACS Med Chem Lett, 2015).

Assays:
MV4-11 = assay: Cytotoxicity against human MV4-11 cells after 24 hrs by CellTiter-Blue assay; assay type: functional; details: MV4-11, 24 h
[1] = biological target: Bromodomain-containing protein 4 (Homo sapiens, UniProt O60885); assay: Binding affinity to BRD4 (unknown origin) expressed in Escherichia coli BL21 after 1 hr by proprietary competition assay
[2] = biological target: Serine/threonine-protein kinase PLK1 (Homo sapiens, UniProt P53350); assay: Binding affinity to PLK1 (unknown origin) expressed in HEK293 cells after 1 hr by proprietary competition assay; assay type: cell-based
Chain of Serine/threonine-protein kinase PLK1 (P53350 whole entry): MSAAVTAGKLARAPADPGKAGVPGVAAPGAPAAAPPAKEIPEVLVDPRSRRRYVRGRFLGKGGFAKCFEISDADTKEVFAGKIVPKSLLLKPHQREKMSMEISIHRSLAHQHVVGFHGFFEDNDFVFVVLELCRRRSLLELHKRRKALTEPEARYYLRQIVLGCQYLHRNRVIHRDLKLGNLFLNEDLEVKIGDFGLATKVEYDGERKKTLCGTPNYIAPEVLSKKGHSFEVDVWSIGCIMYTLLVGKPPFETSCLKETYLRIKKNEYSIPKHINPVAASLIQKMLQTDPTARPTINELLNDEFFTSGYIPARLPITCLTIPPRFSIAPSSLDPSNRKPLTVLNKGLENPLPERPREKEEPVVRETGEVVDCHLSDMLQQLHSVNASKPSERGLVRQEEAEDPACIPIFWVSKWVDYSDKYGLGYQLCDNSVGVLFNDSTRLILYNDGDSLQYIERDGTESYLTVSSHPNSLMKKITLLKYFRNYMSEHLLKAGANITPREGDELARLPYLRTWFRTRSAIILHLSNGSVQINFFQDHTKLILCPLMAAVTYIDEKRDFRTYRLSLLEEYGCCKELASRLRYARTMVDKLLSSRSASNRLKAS

Compound | GI50 (MV4-11) [nM] | Ki [1] [nM] | Ki [2] [nM]
Cc1sc2c(c1C)C(c1ccc(Cl)cc1)=N[C@@H](CC(=O)OC(C)(C)C)c1nnc(C)n1-2 | 80 |  | 
CC[C@@H]1C(=O)Nc2cnc(Nc3ccc(C(=O)NC4CCN(C)CC4)cc3OC)nc2N1C1CCCC1 | 219 | 7950 | 
CC[C@@H]1C(=O)N(CC)c2cnc(Nc3ccc(C(=O)NC4CCN(C)CC4)cc3OC)nc2N1C1CCCC1 | 392 | 470 | 0.91
CC[C@@H]1C(=O)N(C(C)C)c2cnc(Nc3ccc(C(=O)NC4CCN(C)CC4)cc3OC)nc2N1C1CCCC1 | 2670 | 4500 | 
CC[C@@H]1C(=O)N(CC(C)C)c2cnc(Nc3ccc(C(=O)NC4CCN(C)CC4)cc3OC)nc2N1C1CCCC1 | 2530 | > 10000 | 
CC[C@@H]1C(=O)N(Cc2ccccc2)c2cnc(Nc3ccc(C(=O)NC4CCN(C)CC4)cc3OC)nc2N1C1CCCC1 | 7280 | > 10000 | 
COc1cc(C(=O)NC2CCN(C)CC2)ccc1Nc1ncc2c(n1)N(C1CCCC1)CC(=O)N2C | 219 | 1400 | 
CC[C@H]1C(=O)N(C)c2cnc(Nc3ccc(C(=O)NC4CCN(C)CC4)cc3OC)nc2N1C1CCCC1 | 19 |  | 
COc1cc(C(=O)NC2CCN(C)CC2)ccc1Nc1ncc2c(n1)N(C1CCCC1)[C@H](Cc1ccccc1)C(=O)N2C | 1870 | > 10000 | 4.2
CC[C@@H]1C(=O)N(C)c2cnc(Nc3ccc(C(=O)NC4CCN(C)CC4)cc3OC)nc2N1CC(C)C | 40 | 970 | 6.95
CC[C@@H]1C(=O)N(C)c2cnc(Nc3ccc(C(=O)NC4CCN(C)CC4)cc3OC)nc2N1Cc1cccc(Br)c1 | 675 | 8.7 | 5.8
CC[C@@H]1C(=O)N(C)c2cnc(Nc3ccc(C(=O)NC4CCN(C)CC4)cc3)nc2N1C1CCCC1 | 3 | 60 | 
CC[C@@H]1C(=O)N(C)c2cnc(Nc3ccc(C(=O)NC4CCN(C)CC4)c(OC)c3)nc2N1C1CCCC1 | 15 | 37 | 0.52
CC[C@@H]1C(=O)N(C)c2cnc(Nc3ccc(C(=O)NC4CCN(C)CC4)cc3F)nc2N1C1CCCC1 | 4 | 46 | 
CC[C@@H]1C(=O)N(C)c2cnc(Nc3ccc(C(=O)NC4CCN(C)CC4)cc3OCC(C)C)nc2N1C1CCCC1 | 154 | 29 | 
CC[C@@H]1C(=O)N(C)c2cnc(Nc3ccc(C(=O)NC4CCN(C)CC4)cc3OCc3ccccc3)nc2N1C1CCCC1 | 356 | 100 | 
CC[C@@H]1C(=O)N(C)c2cnc(Nc3ccc(C(=O)NC4CCN(C)CC4)cc3OC3CCCC3)nc2N1C1CCCC1 | 240 | 27 | 0.84
CC[C@@H]1C(=O)N(C)c2cnc(Oc3ccc(C(=O)NC4CCN(C)CC4)cc3OC)nc2N1C1CCCC1 | 1340 | 99 | 240
CC[C@@H]1C(=O)N(C)c2cnc(Nc3ccc(C(=O)NC4CCN(C)CC4)cc3OC)nc2N1C1CCCC1 [BI-2536] | 15.2 |  | 
C[C@@H](Oc1cc(-n2cnc3ccc(CN4CCN(C)CC4)cc32)sc1C(N)=O)c1ccccc1C(F)(F)F [GSK-461364] | 679 |  | 
